Results on 16 molecules are retold here after patent US9481648B2, “Kinase inhibitors” (Respivert Limited, priority 2013, dated 2016).

One experiment deals with GSK 3α (Homo sapiens (Human), UniProt P49840). The experiment can be described thus: GSK 3α enzyme inhibition (FRET, Z-LYTE; Method 2). In kind it is biochemical. Conditions: read-out: IC50 Values for Enzyme Inhibition GSK3α. How it is done:
(§1) The enzyme inhibitory activities of compounds disclosed herein are determined by FRET using synthetic peptides labelled with both donor and acceptor fluorophores (Z-LYTE, Invitrogen Ltd., Paisley, UK).
The inhibitory activities of compounds of the invention against the GSK 3α enzyme isoform (Invitrogen), are evaluated by determining the level of activation I phosphorylation of the target peptide. The GSK3-α protein (500 ng/mL, 2.5 μL) is mixed with the test compound (2.5 μL at either 4 μg/mL, 0.4 μg/mL, 0.04 μg/mL, or 0.004 μg/mL) for 2 hr at RT. The FRET peptide (8 μM, 2.5 μL), which is a phosphorylation target for GSK3α, and ATP (40 μM, 2.5 μL) are then added to the enzyme\compound mixture and the resulting mixture incubated for 1 hr. Development reagent (protease, 5 μL) is added for 1 hr prior to detection in a fluorescence microplate reader (Varioskan® Flash, ThermoFisher Scientific).
(§2) In all cases, the site-specific protease cleaves non-phosphorylated peptide only and eliminates the FRET signal. Phosphorylation levels of each reaction are calculated using the ratio of coumarin emission (donor) over fluorescein emission (acceptor), for which high ratios indicate high phosphorylation and low ratios indicate low phosphorylation levels.
This method follows the same steps as Method 1 above, but utilises a shorter period of mixing of the test compound (105 minutes instead of 2 hours) with the GSK3-α protein. In addition, the concentrations of test compound employed are either 10 μg/mL, 1 μg/mL, 0.1 μg/mL, or 0.01 μg/mL

In experiment [1] the test system is β-catenin in d-U937 cells. The experiment in a line: Accumulation of β catenin in d-U937 cells (assay m). In kind it is cell-based, human. How it is done:
U937 cells, a human monocytic cell line, are differentiated into macrophage-type cells by incubation with PMA (100 ng/mL) for between 48 to 72 hr. The cells are then incubated with either final concentrations of test compound or vehicle for 18 hr. The induction of β-catenin by the test compounds is stopped by replacing the media with 4% formaldehyde solution. Endogenous […] is neutralised by incubating with quenching buffer (100 μL, 0.1% sodium azide, 1% H2O2 in PBS with 0.05% Tween-20) for 20 min. The cells are washed with washing buffer (200 μL; PBS containing 0.05% Tween-20) and incubated with blocking solution (200 μL; 5% milk in PBS) for 1 hr, re-washed with washing buffer (200 μL) and then incubated overnight with anti-β-catenin antibody solution (50 μL) in 1% BSA/PBS (BD, Oxford, UK).
After washing with washing buffer (3×200 μL; PBS containing 0.05% Tween-20), cells are incubated with a HRP-conjugated secondary antibody solution (100 μL) in 1% BSA/PBS (Dako, Cambridge, UK) and the resultant signal is determined colourimetrically (OD: 450 nm with a reference wavelength of 655 nm) using TMB substrate (50 μL; R&D Systems, Abingdon, UK). This reaction is stopped by addition of 1N H2SO4 solution (50 μL). Cells are then washed with washing buffer and 2% crystal violet solution (50 μL) is applied for 30 min. After washing with washing buffer (3×200 μL), 1% SDS (100 μL) is added to each well and the plates are shaken lightly for 1 hr prior to measuring the absorbance at 595 nm (Varioskan® Flash, Thermo-Fisher Scientific).
The measured OD450-655 readings are corrected for cell number by dividing the OD450-655 by the OD595 readings.

In the next experiment the target is Syk (Homo sapiens (Human), UniProt P43405). The experiment in a line: Syk enzyme inhibition (FRET, Z-LYTE). In kind it is biochemical. The procedure: as §1
The relevant enzyme (3000 ng/mL or 2000 ng/mL respectively, 2.5 μL) is incubated with the test compound (either 1 μg/mL, 0.1 μg/mL, 0.01 μg/mL, or 0.001 μg/mL, 2.5 μL each) for 2 hr at RT. The FRET peptides (8 μM, 2.5 μL), and appropriate ATP solutions (2.5 μL, 800 μM for c-Src, and 60 μM ATP for Syk) are then added to the enzymes/compound mixtures and the mixture incubated for 1 hr. Development reagent (protease, 5 μL) is added for 1 hr prior to detection in a fluorescence microplate reader (Varioskan® Flash, ThermoFisher Scientific).
as §2

Chain of GSK 3α (P49840 whole entry): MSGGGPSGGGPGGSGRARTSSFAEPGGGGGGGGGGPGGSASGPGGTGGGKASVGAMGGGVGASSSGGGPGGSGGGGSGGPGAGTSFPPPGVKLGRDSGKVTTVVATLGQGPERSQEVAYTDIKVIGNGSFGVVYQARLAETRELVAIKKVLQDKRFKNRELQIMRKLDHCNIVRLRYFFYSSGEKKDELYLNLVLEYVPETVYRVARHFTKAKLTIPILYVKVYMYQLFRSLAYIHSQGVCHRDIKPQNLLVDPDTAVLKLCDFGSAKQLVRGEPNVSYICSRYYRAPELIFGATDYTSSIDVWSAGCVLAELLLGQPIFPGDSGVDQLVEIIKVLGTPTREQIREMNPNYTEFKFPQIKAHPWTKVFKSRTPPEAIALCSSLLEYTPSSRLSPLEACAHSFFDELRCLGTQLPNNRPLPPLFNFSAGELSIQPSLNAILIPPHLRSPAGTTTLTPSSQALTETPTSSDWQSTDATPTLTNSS

Usually IC50 stands for the concentration at which inhibition is half-maximal. For the molecule `COc1cc(Nc2nccc(Oc3ccc(NC(=O)Nc4cc(C(C)(C)C)cc(NS(C)(=O)=O)c4OC)c4ccccc34)n2)cc(OCCOCCOCCO)c1` [83(c), N-(5-(tert-butyl)-3-(3-(4-((2-((3-(2-(2-(2-hydroxyethoxy)ethoxy)ethoxy)-5-methoxyphenyl)-amino)pyrimidin-4-yl)oxy)naphthalen-1-yl)ureido)-2-methoxyphenyl)methanesulfonamide], the IC50 on GSK 3α was 738 nM. Besides, the “% β-catenin induction” value is recorded as 4% in experiment [1] (test compound 1 μg/mL), 31% in experiment [1] (test compound 5 μg/mL) and 33% in experiment [1] (test compound 10 μg/mL). For `COc1cc(Nc2nccc(Oc3ccc(NC(=O)Nc4cc(C(C)(C)C)cc(NS(C)(=O)=O)c4OC)c4ccccc34)n2)cc(OCCOCCOCCN(C)C)c1` [Example 15, N-(5-(tert-Butyl)-3-(3-(4-((2-((3-(2-(2-(2-(dimethylamino)ethoxy)ethoxy)ethoxy)-5-methoxyphenyl)amino)pyrimidin-4-yl)oxy)naphthalen-1-yl)ureido)-2-methoxyphenyl)-methanesulfonamide], the values for the IC50 at GSK 3α and on Syk were 905 nM and 237 nM, respectively. Besides, the “% β-catenin induction” value in experiment [1] (test compound 1 μg/mL) is on record as −2%; in experiment [1] (test compound 5 μg/mL), −6%; in experiment [1] (test compound 10 μg/mL), −17%. Regarding `C#Cc1cc(Nc2nccc(Oc3ccc(NC(=O)Nc4cc(C(C)(C)C)cc(C(=O)NC)c4OC)c4ccccc34)n2)cc(C(=O)N[C@@H](C)CN2CCOCC2)c1` [Example 60, (S)-5-(tert-Butyl)-3-(3-(4-((2-((3-ethynyl-5-((1-morpholinopropan-2-yl)carbamoyl)phenyl)amino)pyrimidin-4-yl)oxy)naphthalen-1-yl)ureido)-2-methoxy-N-methylbenzamide], the IC50 on GSK 3α is 539 nM. The same measure, in the same setting: as for `C#Cc1cc(Nc2nccc(Oc3ccc(NC(=O)Nc4cc(C(C)(C)C)cc(C(=O)NC)c4OC)c4ccccc34)n2)cc(C(=O)N[C@H](C)CN2CCOCC2)c1` [Example 61, (R)-5-(tert-Butyl)-3-(3-(4-((2-((3-ethynyl-5-((1-morpholinopropan-2-yl)carbamoyl)phenyl)amino)pyrimidin-4-yl)oxy)naphthalen-1-yl)ureido)-2-methoxy-N-methylbenzamide], the figure is 372 nM; as for `COCCOCCOCCOc1cc(Nc2nccc(Oc3ccc(NC(=O)Nc4cc(C(C)(C)C)cc5[nH]c(=O)oc45)c4ccccc34)n2)cc(OC)c1` [Example 63, 1-(5-(tert-Butyl)-2-oxo-2,3-dihydrobenzo[d]oxazol-7-yl)-3-(4-((2-((3-methoxy-5-(2-(2-(2-methoxyethoxy)ethoxy)ethoxy)phenyl)amino)pyrimidin-4-yl)oxy)naphthalen-1-yl)urea], 829 nM. Still for that read-out and setting: the value for `COCCOCCOCCOc1cc(Nc2nccc(Oc3ccc(NC(=O)Nc4cc(C(C)(C)C)cc5nc(C)oc45)c4ccccc34)n2)cc(OC)c1` [Example 64, 1-(5-(tert-Butyl)-2-methylbenzo[d]oxazol-7-yl)-3-(4-((2-((3-methoxy-5-(2-(2-(2-methoxy-ethoxy)ethoxy)ethoxy)phenyl)amino)pyrimidin-4-yl)oxy)naphthalen-1-yl)urea] was 1460 nM. On the same count and under the same terms, as for `COCCOCCOCCOc1cc(Nc2nccc(Oc3ccc(NC(=O)Nc4cc(C(C)(C)C)cc(NS(=O)(=O)C(F)(F)F)c4OC)c4ccccc34)n2)cc(OC)c1` [Example 71], the figure is 2620 nM; as for `COCCOCCOCCOc1cc(Nc2nccc(Oc3ccc(NC(=O)Nc4cc(C(C)(C)C)cc(NS(=O)(=O)C5CCCCC5)c4OC)c4ccccc34)n2)cc(OC)c1` [Example 72, N-(5-(tert-Butyl)-2-methoxy-3-(3-(4-((2-((3-methoxy-5-(2-(2-(2-methoxyethoxy)ethoxy)-ethoxy)phenyl)amino)pyrimidin-4-yl)oxy)naphthalen-1-yl)ureido)phenyl)cyclohexane-sulfonamide], 11300 nM; as for `COCCOCCOCCOc1cc(Nc2nccc(Oc3ccc(NC(=O)Nc4cc(C(C)(C)C)cc(NS(=O)(=O)N5CCCCC5)c4OC)c4ccccc34)n2)cc(OC)c1` [Example 73, N-(5-(tert-Butyl)-2-methoxy-3-(3-(4-((2-((3-methoxy-5-(2-(2-(2-methoxyethoxy)ethoxy)-ethoxy)phenyl)amino)pyrimidin-4-yl)oxy)naphthalen-1-yl)ureido)phenyl)piperidine-1-sulfonamide], 11300 nM. Take `COCCOCCOCCOc1cc(Nc2nccc(Oc3ccc(NC(=O)Nc4cc(C(C)(C)C)cc(NS(=O)(=O)N(C)C)c4OC)c4ccccc34)n2)cc(OC)c1` [Example 74, N-(5-(tert-Butyl)-2-methoxy-3-(3-(4-((2-((3-methoxy-5-(2-(2-(2-methoxyethoxy)ethoxy)-ethoxy)phenyl)amino)pyrimidin-4-yl)oxy)naphthalen-1-yl)ureido)phenyl)dimethylamino-sulfonamide]: the IC50 on GSK 3α turned out to be 9680 nM. Same read-out and setting: as for `COc1c(NC(=O)Nc2ccc(Oc3ccnc(Nc4ccccc4)n3)c3ccccc23)cc(C(C)(C)C)cc1C(=O)NC1COC1` [Example 78, 5-(tert-Butyl)-2-methoxy-N-(oxetan-3-yl)-3-(3-(4-((2-(phenylamino)pyrimidin-4-yl)oxy)-naphthalen-1-yl)ureido)benzamide], the figure is 896 nM; as for `COc1c(NC(=O)Nc2ccc(Oc3ccnc(Nc4ccccc4)c3)c(F)c2F)cc(C(C)(C)C)cc1C(=O)NC1COC1` [Example 82, 5-(tert-Butyl)-3-(3-(2,3-difluoro-4-((2-(phenylamino)pyridin-4-yl)oxy)phenyl)ureido)-2-methoxy-N-(oxetan-3-yl)benzamide], 182 nM. The same measure, in the same setting: as for `C#Cc1cc(Nc2cc(Oc3ccc(NC(=O)Nc4cc(C(C)(C)C)cc(NS(C)(=O)=O)c4OC)c4ccccc34)ccn2)cc(C(=O)NCCN2CCN(C)CC2)c1` [Example 85(c), 3-[[4-[[4-[[5-tert-Butyl-3-(methanesulfonamido)-2-methoxyphenyl]-carbamoylamino]-1-nahthyl]oxy]-2-pyridyl]amino]-5-ethynyl-N-[2-(4-methylpiperazin-1-yl)ethyl]benzamide], the figure is 3560 nM; as for `COc1cc(Nc2nccc(Oc3ccc(NC(=O)Nc4cc(C(C)(C)C)cc(NS(C)(=O)=O)c4OC)c4ccccc34)n2)cc(C(=O)NCCN2CCN(C)CC2)c1` [Example 85(e), 3-[[4-[[4-[[5-tert-Butyl-3-(methanesulfonamido)-2-methoxyphenyl]-carbamoylamino]-1-naphthyl]oxy]pyrimidin-2-yl]amino]-5-methoxy-N-[2-(4-methyypiperazin-1-yl)ethyl]benzamide], 300 nM. The same measure, in the same setting: the value for `COc1cc(Nc2cc(Oc3ccc(NC(=O)Nc4cc(C(C)(C)C)cc(NS(C)(=O)=O)c4OC)c4ccccc34)ccn2)cc(C(=O)NCCN2CCCN(C)CC2)c1` [Example 85(p), 3-[[4-[[4-[[5-tert-Butyl-3-(methanesulfonamido)-2-methoxyphenyl]-carbamoylamino]-1-naphthyl]oxy]-2-pyridyl]amino]-5-methoxy-N-[2-(4-methyl-1,4-diazean-1-yl)ethyl]benzamide] was 1160 nM.

For the molecule `COCCOCCOCC[S+]([O-])c1cc(Nc2cc(Oc3ccc(NC(=O)Nc4cc(C(C)(C)C)cc(NS(C)(=O)=O)c4OC)c4ccccc34)ccn2)cc(OC)c1` (centres unmarked) [Example 85(x), 1-[5-tert-Butyl-3-(methanesulfonamido)-2-methoxyphenyl]-3-[4-[2-[3-methoxy-5-[2-[2-(2-methoxyethoxy)ethoxy]ethylsufinyl]anilino]pyridin-4-yl]oxy-1-naphthyl]urea], the IC50 on GSK 3α is 878 nM.
